The values that follow come from patent publication US20050090529A1, “3,5 Disubstituted indazole compounds with nitrogen-bearing 5-membered heterocycles, pharmaceutical compositions, and methods for mediating or inhibiting cell proliferation” (PFIZER INC, priority 2003, published 2005).

Structures are written as SMILES.

In the assay the test system is Cyclin-dependent kinase. In words: Cyclin-dependent kinase inhibition, % inhibition at 10 nM (library Examples 99-270). It is filed as biochemical. As to conditions: 10 nM compound. In short, it runs like this: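 Enzyme starts the reaction at 30° C, which runs 20 min with 25 μM [³²P/³³P]ATP and protein substrate (pH 7.4, 10 mM MgCl2, 2% DMSO). After EDTA quench, membrane-bound labelled substrate is read by phosphorimaging following acid washes.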
Regarding `CCNCc1cncc(-c2ccc3[nH]nc(-c4ncc(C(=O)N5CCC(c6ccn[nH]6)CC5)[nH]4)c3c2)c1C` [Example 250, ethyl({4-methyl-5-[3-(5-{[4-(1H-pyrazol-5-yl)piperidin-1-yl]carbonyl}-H-imidazol-2-yl)-1 H-indazol-5-yl]pyridin-3-yl}methyl)amine], the “% Inhib @ 10 nM” value is listed as 62%. In the case of `CCNCc1cncc(-c2ccc3[nH]nc(-c4ncc(C(=O)N5CCC(O)(c6ccccc6)CC5)[nH]4)c3c2)c1C` [Example 112, 1-{[2-(5-{5-[(ethylamino)methyl]-4-methylpyridin-3-yl}-1H-indazol-3-yl)-1H-imidazol-5-yl]carbonyl}-4-phenylpiperidin-4-ol] it was 80%; in that of `CCNCc1cncc(-c2ccc3[nH]nc(-c4ncc(C(=O)N[C@H]5CCc6ccccc65)[nH]4)c3c2)c1C` [Example 162], 81%. As for `CCNCc1cncc(-c2ccc3[nH]nc(-c4ncc(C(=O)NCCc5nnc(CC(C)C)o5)[nH]4)c3c2)c1C` [Example 270, 2-(5-{5-[(ethylamino)methyl]-4-methylpyridin-3-yl}-1H-indazol-3-yl)-N-[2-(5-isobutyl-1,3,4-oxadiazol-2-yl)ethyl]-1H-imidazole-5-carboxamide], the figure is 27%; as for `C=C(C)CN(CC)C(=O)c1cnc(-c2n[nH]c3ccc(-c4cncc(CNCC)c4C)cc23)[nH]1` [Example 207], 69%. Consider `CCNCc1cncc(-c2ccc3[nH]nc(-c4ncc(C(=O)N5C[C@@H]6[C@@H](N)[C@@H]6C5)[nH]4)c3c2)c1C` [Example 193], for which the “% Inhib @ 10 nM” value came out at 52%. As for `CCNCc1cncc(-c2ccc3[nH]nc(-c4ncc(C(=O)NC(Cc5cc(C)no5)C5CC5)[nH]4)c3c2)c1C` (stereo not drawn) [Example 160, N-[1-cyclopropyl-2-(3-methylisoxazol-5-yl)ethyl]-2-(5-{5-[(ethylamino)methyl]-4-methylpyridin-3-yl}-1H-indazol-3-yl)-1H-imidazole-5-carboxamide], the “% Inhib @ 10 nM” value worked out at 48%.

With `CCNCc1cncc(-c2ccc3[nH]nc(-c4ncc(C(=O)N5CCN(CCO)CC5)[nH]4)c3c2)c1C` [Example 125, 2-(4-{[2-(5-{5-[(ethylamino)methyl]-4-methylpyridin-3-yl}-1H-indazol-3-yl)-1H-imidazol-5-yl]carbonyl}piperazin-1-yl)ethanol], the “% Inhib @ 10 nM” value came to 40%. In the case of `CCCCN(CCC#N)C(=O)c1cnc(-c2n[nH]c3ccc(-c4cncc(CNCC)c4C)cc23)[nH]1` [Example 164, N-butyl-N-(2-cyanoethyl)-2-(5-{5-[(ethylamino)methyl]4-methylpyridin-3-yl}-1H-indazol-3-yl)-1H-imidaole-5-carboxamide] it was 69%. As for `CCNCc1cncc(-c2ccc3[nH]nc(-c4ncc(C(=O)N5CCc6ncsc6C5)[nH]4)c3c2)c1C` [Example 217, [(5-{3-[5-(6,7-dihydro[1,3]thiazolo[5,4-c]pyridin-5(4H)-ylcarbonyl)-1H-imidazol-2-yl]-1H-indazol-5-yl}-4-methylpyridin-3-yl)methyl]ethylamine], the figure is 79%; as for `CCNCc1cncc(-c2ccc3[nH]nc(-c4ncc(C(=O)NCCC5CCC(=O)N5Cc5ccccc5)[nH]4)c3c2)c1C` (stereo not drawn) [Example 253, N-[2-(1-benzyl-5-oxopyrrolidin-2-yl)ethyl]-2-(5-{5-[(ethylamina)methyl]-4-methylpyridin-3-yl}-1H-indazol-3-yl)-1H-imidazole-5-carboxamide], 18%; as for `CCNCc1cncc(-c2ccc3[nH]nc(-c4ncc(C(=O)NCCC56CCCN5CCC6)[nH]4)c3c2)c1C` [Example 216, 2-(5-{5-[(ethylamino)methyl]-4-methylpyridin-3-yl}-1H-indazol-3-yl)-N-[2-(tetrahydro-1H-pyrrolizin-7a(5H)-yl)ethyl]-1H-imidazole-5-carboxamide], 13%.
